A word on the IC50: it is the concentration needed to halve the response being measured.

In test [1] the target is T1, LFA-1/ICAM-1 (Homo sapiens, UniProt P05107+P20701).
T1 construct: endogenous in cells; host or cells: LFA-1: endogenous protein purified from JY cells (human lymphoblastoid B cell line); ICAM-1-Cκ fusion: made in house with the baculovirus system
Description: Cell free assay: binding of soluble human ICAM-1 to immobilized human LFA-1.
Description: A. In vitro: Cell Free Assay
The assay measures the binding of soluble human ICAM-1 to immobilized human LFA-1. LFA-1 is purified from JY cells, a human lymphoblastoid B cell-line, by immunoaffinity chromatography as described by Dustin et a/. […] ICAM-1 mouse Cκ fusion protein (ICAM-1) is produced using the baculovirus system as described by Weitz-Schmidt et al. (Anal. Biochem.238,184-190, 1996).
Purified LFA-1 is diluted 1:20 in phosphate buffered saline (PBS) containing 2 mM MgCl2, pH 7.4 and coated onto microtitre plates (Nunc) at 37°C for 3h. Plates are blocked with 1% heat-treated BSA in PBS for 2 hours at 37°C followed by a washing step using PBS, 2mM MgCl2, 1% fetal calf serum, pH 7.4 (assay buffer). Compounds dissolved at 10 mM in DMSO are diluted in assay buffer and added to the plates. Biotinylated recombinant ICAM-1 in assay buffer (6 µg/ml) is added and allowed to bind at 37°C for one hour. After incubation, wells are washed with assay buffer. Streptavidin-peroxidase diluted 1:5000 in assay buffer is added and incubated for 45 min at 37 °C. Plates are then washed with assay buffer and 2.2'-azino-bis(3-ethylbenzothiazoiine-6 sulfonic acid) diammonium salt substrate solution is added to each well. The reaction is stopped after 20 min and bound ICAM-1 is determined by measuring the optical density at 405 nm in a microplate reader.

Test [2] concerns allergic contact dermatitis. Description: Allergic contact dermatitis (ACD), oxazolone-induced, pinnal weight. The following applies: pinnal weight 24 h after challenge. In kind it is in vivo, female NMRI mice. How it is done: ii) Allergic Contact Dermatitis (ACD)
Groups of 8 female NMRI mice are sensitized on the shaved abdomen with 50 µl of oxazolone (Sigma, 2% in acetone) and challenged with 10 µl of 0.2 or 2.0% oxazolone on the inner surface of the right ear 7 days later. The low concentration of oxazolone for induction of the elicitation phase is used for testing compounds on […] activity whereas the high concentration is applied for […] testing. The unchallenged left ears serve as normal controls and dermatitis is evaluated from the individual differences in pinnal weight, which is taken as a measure of increase in inflammatory swelling 24 h after the challenge. Dermatitis is evaluated in test- and for comparison in control groups. The test groups are treated with the test compounds either orally (twice, 2 h and immediately before challenge), subcutaneously (immediately before challenge) or topically (30 min after challenge at the site of elicitation of the ACD); the controls are treated similarly with the vehicles alone. […] The data of the test- and the vehicle-treated control groups are statistically analysed by ANOVA followed by Dunnet T-test (normal distribution or data) or by H and U-test, respectively. […]

T1 sequence (P20701 26-1170): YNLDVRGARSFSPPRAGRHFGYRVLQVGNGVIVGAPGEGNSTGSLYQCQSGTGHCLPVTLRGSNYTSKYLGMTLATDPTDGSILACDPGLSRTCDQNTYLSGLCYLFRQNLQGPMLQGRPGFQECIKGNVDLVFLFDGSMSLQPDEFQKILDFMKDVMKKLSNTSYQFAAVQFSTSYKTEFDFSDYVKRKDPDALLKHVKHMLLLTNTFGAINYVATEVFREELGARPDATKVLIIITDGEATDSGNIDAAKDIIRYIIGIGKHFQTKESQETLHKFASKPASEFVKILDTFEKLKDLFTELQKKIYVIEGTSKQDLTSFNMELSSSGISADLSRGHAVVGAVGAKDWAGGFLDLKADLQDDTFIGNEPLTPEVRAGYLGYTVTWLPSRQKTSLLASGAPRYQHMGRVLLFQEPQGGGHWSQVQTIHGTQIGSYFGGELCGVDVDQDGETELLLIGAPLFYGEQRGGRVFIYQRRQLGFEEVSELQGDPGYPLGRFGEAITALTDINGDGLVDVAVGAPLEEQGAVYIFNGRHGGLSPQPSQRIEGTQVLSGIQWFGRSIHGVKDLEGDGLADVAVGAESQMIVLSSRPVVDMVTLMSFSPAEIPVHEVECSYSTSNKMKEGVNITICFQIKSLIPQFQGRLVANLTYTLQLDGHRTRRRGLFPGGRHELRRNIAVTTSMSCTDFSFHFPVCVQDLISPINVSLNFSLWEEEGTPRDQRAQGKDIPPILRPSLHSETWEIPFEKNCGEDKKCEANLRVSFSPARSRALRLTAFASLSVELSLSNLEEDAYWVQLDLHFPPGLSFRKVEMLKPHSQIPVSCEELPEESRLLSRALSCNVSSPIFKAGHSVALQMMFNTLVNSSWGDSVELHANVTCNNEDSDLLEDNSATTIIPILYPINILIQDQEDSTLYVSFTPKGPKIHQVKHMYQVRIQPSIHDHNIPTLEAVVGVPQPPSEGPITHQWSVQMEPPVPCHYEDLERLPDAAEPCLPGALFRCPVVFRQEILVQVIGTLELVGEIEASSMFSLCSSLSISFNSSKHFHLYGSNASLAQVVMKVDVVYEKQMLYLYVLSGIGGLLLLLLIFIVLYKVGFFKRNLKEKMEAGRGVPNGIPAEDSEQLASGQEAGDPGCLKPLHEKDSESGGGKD
T1 sequence (P05107 23-769): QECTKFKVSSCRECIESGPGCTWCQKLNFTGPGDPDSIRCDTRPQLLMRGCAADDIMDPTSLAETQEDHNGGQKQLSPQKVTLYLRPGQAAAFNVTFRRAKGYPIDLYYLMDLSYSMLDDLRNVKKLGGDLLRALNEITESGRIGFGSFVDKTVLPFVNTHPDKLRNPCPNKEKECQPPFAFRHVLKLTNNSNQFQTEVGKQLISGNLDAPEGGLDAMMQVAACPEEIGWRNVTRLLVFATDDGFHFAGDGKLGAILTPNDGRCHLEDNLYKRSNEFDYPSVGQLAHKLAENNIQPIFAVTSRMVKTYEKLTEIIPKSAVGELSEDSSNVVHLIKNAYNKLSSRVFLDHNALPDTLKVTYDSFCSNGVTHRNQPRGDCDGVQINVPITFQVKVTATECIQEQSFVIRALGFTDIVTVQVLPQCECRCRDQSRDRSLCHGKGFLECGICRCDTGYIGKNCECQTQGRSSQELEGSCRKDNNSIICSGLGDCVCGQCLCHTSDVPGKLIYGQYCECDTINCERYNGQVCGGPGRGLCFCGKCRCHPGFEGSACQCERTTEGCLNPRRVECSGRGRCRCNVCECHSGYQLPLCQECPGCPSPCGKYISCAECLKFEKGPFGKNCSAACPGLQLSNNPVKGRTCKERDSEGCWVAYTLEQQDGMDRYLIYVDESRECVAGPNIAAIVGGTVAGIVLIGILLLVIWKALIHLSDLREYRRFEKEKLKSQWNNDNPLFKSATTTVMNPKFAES

For `C[C@@H]1CCN([C@H](Cc2cccc3ccccc23)C(N)=O)C(=O)[C@H](c2ccccc2)N1C(=O)Cc1ccc2ncccc2c1` [Example 3, (R)-2-[(3S,5R)-5-Methyl-2-oxo-3-phenyl-4-(quinolin-6-yl-acetyl)-[1,4]diazepan-1-yl)-3-(naphthalen-1-yl)-propionamide], the IC50 in test [1] was 70 nM. The figures for the inhibiting effect in test [2] (administered p.o. at a dose of 2 x 3 mg/kg) and in test [2] (applied topically at a dose of 10 mM) were 40% and 50%, respectively.

(Values after patent EP1220852B1, “SUBSTITUTED DIAZEPANS” (Novartis AG, priority 1999, dated 2001).)
